Assay results taken from EP0311163A2, “Use of site-specific modified lipolytic enzymes for the selective hydrolysis of organized lipid structures” (DUPHAR INTERNATIONAL RESEARCH B.V, priority 1987, dated 1989).

Tests used:
Experiment in all cases: Kinetic measurement with micellar L-dioctanoyl-lecithin (Vmax)
Format in all cases: biochemical
Conditions in all cases: micellar substrate, titration of fatty acid with 10.3 mM NaOH at pH 6.0
[1] = target: T1, Porcine pancreatic phospholipase A₂, AMPA (fully ε-amidinated PLA) (Sus scrofa, UniProt P00592)
T1 construct: fully ε-amidinated according to the method by Wallace and Harris, Biochem. J., 217, (1984), 589-594, and converted into AMPA; from tissue; host or cells: pig pancreas; chemically amidinated as the pro-enzyme, then converted to the active enzyme
Protocol: (§1) […]. A value of 8.8 is used for the N-terminal shortened bovine pancreas enzyme fragments missing Trp³. • b. The binding of the PLA's to micellar cis-9-octadecenyl phosphocholine is determined by means of UV absorption difference spectroscopy (De Aranjo et al., Biochem. 18, (1979), 580-586;; and Hille et al., Biochem. 20, (1981), 4068-4073). • c. Monolayer experiments are carried out using the zero order through with two compartments and the surface barostat technique for measuring phospholipid hydrolysis (Verger and De Haas, Chem. Phys. Lipids, 10, (1973), 127-136). Calculation of the induction time (τ) is carried out as described by Verger et al. J. Biol. Chem. 248 (1973), 4023-4034). Surface tension (π) is measured by means of the plate method by Wilhelmy using a thin platinum plate attached to a Beckman R II C Model LM 600 microbalance. • d. Kinetic measurements with micellar diC₈PC are carried out according to De Haas et al, Biochem. Biophys. Acta, 239, (1971) 252-266.
(§2) This means that the inherent catalytic activity of these pPLA's is not affected by the site-specific acylation. Although acylation of Lys¹¹⁶ with acetyl or maleyl results in a lower Vmax, the remaining activity is sufficient to hydrolyse micellar short chain lecithins effectively. TABLE A

[2] = tested on: Porcine pancreatic phospholipase A₂, [ε-Ac-Lys¹¹⁶]AMPA
Protocol: as §1, §2

[3] = target: T2, Bovine pancreatic phospholipase A₂, [Arg⁶,ε-Pal-Lys¹⁰]-AMPA (Bos taurus, UniProt P00593, N28R)
T2 construct: Conversion of fully ε-amidinated bovine pancreatic AMPrec in [Arg⁶, ε-Pal-Lys¹⁰]-AMPA; from tissue; host or cells: bovine pancreas; semisynthetic: amidinated fragment 11-123 re-elongated with Pal-Lys, Ile, Met and Ala.Leu.Trp.Gln.Phe.Arg.Gly
Protocol: as §1, §2

[4] = tested on: Porcine pancreatic phospholipase A₂, [ε-Pal-Lys¹¹⁶]AMPA
Protocol: as §1, §2

[5] = tested on: Porcine pancreatic phospholipase A₂, [ε-Ol-Lys¹¹⁶]AMPA
Protocol: as §1, §2

[6] = tested on: Porcine pancreatic phospholipase A₂, [ε-Lau-Lys¹¹⁶]AMPA
Protocol: as §1, §2

[7] = target: T3, Bovine pancreatic phospholipase A₂ (PLA), native (Bos taurus, UniProt P00593)
T3 construct: pancreatic pro-PLA's can be purified and converted into the corresponding PLA's; from tissue; host or cells: bovine pancreas
Protocol: as §1, §2

[8] = tested on: Porcine pancreatic phospholipase A₂, [ε-NH₂-Lys¹¹⁶]AMPA
Protocol: as §1, §2

[9] = tested on: Porcine pancreatic phospholipase A₂, [ε-Cap-Lys¹¹⁶]AMPA
Protocol: as §1, §2

[10] = target: T4, Porcine pancreatic phospholipase A₂ (PLA), native (Sus scrofa, UniProt P00592)
T4 construct: pancreatic pro-PLA's can be purified and converted into the corresponding PLA's; from tissue; host or cells: pig pancreas
Protocol: as §1, §2

[11] = target: T5, Bovine pancreatic phospholipase A₂, AMPA (fully ε-amidinated PLA) (Bos taurus, UniProt P00593)
T5 construct: fully ε-amidinated according to the method by Wallace and Harris, Biochem. J., 217, (1984), 589-594, and converted into AMPA; from tissue; host or cells: bovine pancreas; chemically amidinated as the pro-enzyme, then converted to the active enzyme
Protocol: as §1, §2

[12] = target: T6, Bovine pancreatic phospholipase A₂, [Arg⁶]-AMPA (Bos taurus, UniProt P00593, N28R)
T6 construct: fully ε-amidinated according to the method by Wallace and Harris, Biochem. J., 217, (1984), 589-594, and converted into AMPA; from tissue; host or cells: bovine pancreas
Protocol: as §1, §2

[13] = tested on: Porcine pancreatic phospholipase A₂, [ε-Mal-Lys¹¹⁶]AMPA
Protocol: as §1, §2

T5 sequence (P00593 23-145): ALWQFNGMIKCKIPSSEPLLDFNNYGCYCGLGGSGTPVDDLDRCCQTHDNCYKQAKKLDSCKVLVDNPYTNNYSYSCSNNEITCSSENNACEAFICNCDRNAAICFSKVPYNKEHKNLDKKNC
T3 sequence (P00593 23-145): as above
T2 sequence (P00593 23-145 N28R): as the sequence (P00593 23-145) above, with N6R counted along it
T6 sequence (P00593 23-145 N28R): as the sequence (P00593 23-145) above, with N6R counted along it
T1 sequence (P00592 23-146): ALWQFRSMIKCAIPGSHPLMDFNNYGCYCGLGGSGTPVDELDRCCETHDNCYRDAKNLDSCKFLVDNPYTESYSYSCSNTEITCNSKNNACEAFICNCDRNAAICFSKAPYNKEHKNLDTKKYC
T4 sequence (P00592 23-146): as above

Q: CCCCCCCC(=O)OC[C@H](COP(=O)([O-])OCC[N+](C)(C)C)OC(=O)CCCCCCC [L-dioctanoyl-lecithin, 1,2-dioctanoyl-sn-glycero-3-phosphocholine] was tested. Which “Vmax micellar L-dioctanoyl-lecithin” value [1] did it give?
A: 1650 µequiv. min⁻¹ mg⁻¹

Q: And the “Vmax micellar L-dioctanoyl-lecithin” value [2]?
A: 755 µequiv. min⁻¹ mg⁻¹

Q: And the “Vmax micellar L-dioctanoyl-lecithin” value [3]?
A: 5600 µequiv. min⁻¹ mg⁻¹

Q: And the “Vmax micellar L-dioctanoyl-lecithin” value [4]?
A: 2200 µequiv. min⁻¹ mg⁻¹

Q: What about the “Vmax micellar L-dioctanoyl-lecithin” value [5] of the same molecule?
A: 2600 µequiv. min⁻¹ mg⁻¹

Q: What about the “Vmax micellar L-dioctanoyl-lecithin” value [6] of the same molecule?
A: 2500 µequiv. min⁻¹ mg⁻¹

Q: What about the “Vmax micellar L-dioctanoyl-lecithin” value [7] of the same molecule?
A: 3000 µequiv. min⁻¹ mg⁻¹

Q: And the “Vmax micellar L-dioctanoyl-lecithin” value [8]?
A: 2000 µequiv. min⁻¹ mg⁻¹

Q: And the “Vmax micellar L-dioctanoyl-lecithin” value [9]?
A: 2100 µequiv. min⁻¹ mg⁻¹

Q: And the “Vmax micellar L-dioctanoyl-lecithin” value [10]?
A: 2200 µequiv. min⁻¹ mg⁻¹

Q: And the “Vmax micellar L-dioctanoyl-lecithin” value [11]?
A: 2300 µequiv. min⁻¹ mg⁻¹

Q: What about the “Vmax micellar L-dioctanoyl-lecithin” value [12] of the same molecule?
A: 5900 µequiv. min⁻¹ mg⁻¹

Q: What about the “Vmax micellar L-dioctanoyl-lecithin” value [13] of the same molecule?
A: 405 µequiv. min⁻¹ mg⁻¹
